Experimental findings from patent US6479531B1, “Gastrin and cholecystokinin receptor ligands” (James Black Foundation Limited, priority 1998, dated 2002) are described below.

This assay has as its target T1, CCKB receptor (Mus musculus, UniProt P56481).
T1 construct: The whole brains from male mice (CD1 22-25 g; Charles River) were removed; from tissue; host or cells: cerebral cortex membranes of male CD1 mice
T1 sequence (P56481 1-453): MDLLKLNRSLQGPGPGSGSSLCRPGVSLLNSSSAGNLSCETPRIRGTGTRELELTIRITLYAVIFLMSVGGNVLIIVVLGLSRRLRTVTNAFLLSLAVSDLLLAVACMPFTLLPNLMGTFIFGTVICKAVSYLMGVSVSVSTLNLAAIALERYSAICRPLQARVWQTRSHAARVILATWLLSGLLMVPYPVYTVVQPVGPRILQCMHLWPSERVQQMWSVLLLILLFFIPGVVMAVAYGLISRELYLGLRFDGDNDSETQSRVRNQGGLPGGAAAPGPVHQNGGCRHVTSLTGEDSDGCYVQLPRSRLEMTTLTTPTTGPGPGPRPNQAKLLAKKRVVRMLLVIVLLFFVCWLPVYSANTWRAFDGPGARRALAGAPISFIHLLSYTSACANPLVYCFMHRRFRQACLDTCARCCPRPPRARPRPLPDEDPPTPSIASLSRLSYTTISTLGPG
The assay is described as follows: CCKB receptor radioligand binding assay in mouse cortical membranes. The note with it: [125I]-CCK8(S) 200 pM, 150 min at 21±3°, read-out: CCKB pKi (converted). How it is done:
The compounds of the examples were tested for binding at the CCKB receptor in mouse cortical membranes by means of a radioligand binding assay. The procedure was as follows:
The whole brains from male mice (CD1 22-25 g; Charles River) were removed and placed in ice-cold buffer (pH 7.2 @ 21±3°) of the following composition (mM); 10 HEPES, 130 NaCl, 4.7 KCl, 5 MgCl2, 1 EDTA and containing 0.25 gl^−1 bacitracin. The cortex was dissected, weighed and homogenised in 40 ml ice-cold buffer using a Teflon-in-glass homogeniser. The homogenate was centrifuged at 39800 g for 20 min […], the supernatant discarded and the pellet resuspended by homogenisation in fresh buffer. The homogenate was recentrifuged (39800 g, 20 min @ 4°) and the final pellet was resuspended in HEPES buffer to give a tissue concentration of 20 mg ml^−1 (original wet weight).
The assay was terminated by rapid filtration through pre-soaked Whatman GF/B filters using a Brandell Cell Harvester. The filters were washed (3×3 ml) with ice-cold 50 mM Tris-HCl (pH 7.4 @ 4° C.) and bound radioactivity determined by counting (1 min) in a gamma-counter.
For `Cc1ccccc1-c1nc(C(=O)Nc2cccc(OCC(=O)O)c2)c(CCC23CC4CC(CC(C4)C2)C3)[nH]1` [Example 98, (3-{[5-(2-Adamantan-1-yl-ethyl)-2-o-tolyl-1H-imidazole-4-carbonyl]-amino}-phenoxy)-acetic Acid], the Ki was 25.1 nM. `O=C(O)c1ccc(NC(=O)c2nc(-c3ccccc3F)[nH]c2CCC23CC4CC(CC(C4)C2)C3)cc1` [Example 51, 4-{[5-(2-Adamantan-1-yl-ethyl)-2-(2-fluoro-phenyl)-1H-imidazole-4-carbonyl]-amino}-benzoic Acid]: the Ki is 2630 nM.

Consider `O=C(O)c1ccccc1NC(=O)c1cc(-c2ccccc2)[nH]c1CC12CC3CC(CC(C3)C1)C2` [Example 6, 2-[(2-Adamantan-1-ylmethyl-5-phenyl-1H-pyrrole-3-carbonyl)-amino]-benzoic Acid], for which the Ki was 832 nM. As to `O=C(O)c1cccc(NC(=O)c2nc(-c3ccc4ccccc4c3)[nH]c2CCC23CC4CC(CC(C4)C2)C3)c1` [Example 45, 3-{[5-(2-Adamantan-1-yl-ethyl)-2-naphthalen-2-yl-1H-imidazole-4-carbonyl]-amino}-benzoic Acid], the Ki was 501 nM. To `O=C(O)CCNC(=O)c1nc(-c2ccccc2F)[nH]c1CCC12CC3CC(CC(C3)C1)C2` [Example 52, 3-{[5-(2-Adamantan-1-yl-ethyl)-2-(2-fluoro-phenyl)-1H-imidazole-4-carbonyl]-amino}-propionic Acid] belongs 2570 nM; to `O=C(O)c1cccc(NC(=O)c2nc(C34CC5CC(CC(C5)C3)C4)[nH]c2CCC23CC4CC(CC(C4)C2)C3)c1` [Example 109, 3-{[2-Adamantan-1-yl-5-(2-adamantan-1-yl-ethyl)-1H-imidazole-4-carbonyl]-amino}-benzoic Acid], 44.7 nM. For `O=C(O)c1cc(NC(=O)c2nc(CCc3ccccc3)[nH]c2CC2CCCCCC2)cc(C(=O)O)c1` [Example 27, 5-[(5-Cycloheptylmethyl-2-(2-phenyl-ethyl)-1H-imidazole-4-carbonyl)-amino]-isophthalic Acid], the Ki was 3550 nM. `Cc1ccccc1-c1nc(C(=O)Nc2cccc(C(=O)O)c2)c(CC23CC4CC(CC(C4)C2)C3)[nH]1` [Example 170, 3-[(5-Adamantan-1-ylmethyl-2-o-tolyl-1H-imidazole-4-carbonyl)-amino]-benzoic Acid]: the Ki was 1450 nM. For the compound `Cc1ccccc1-c1nc(C(=O)Nc2ccc(F)c(C(=O)O)c2F)c(CCC23CC4CC(CC(C4)C2)C3)[nH]1` [Example 248, 3-{[5-(2-Adamantan-1-yl-ethyl)-2-o-tolyl-1H-imidazole-4-carbonyl]-amino}-2,6-difluoro-benzoic Acid], the Ki is 25.7 nM. Regarding `O=C(O)c1cc(NC(=O)c2ncn(Cc3ccccc3)c2CC2CCCCCC2)cc(C(=O)O)c1` [Example 36, 5-[(1-Benzyl-5-cycloheptylmethyl-1H-imidazole-4-carbonyl)-amino]-isophthalic Acid], the Ki is 3160 nM. To `O=C(Nc1cccc(-c2nnn[nH]2)c1)c1cc(-c2ccc3ccccc3c2)[nH]c1CC1CCCCCC1` [Example 16, 2-Cycloheptylmethyl-5-naphthalen-2-yl-1H-pyrrole-3-carboxylic Acid [3-(1H-tetrazol-5-yl)-phenyl]-amide] belongs 724 nM; to `O=C(O)c1cc(NC(=O)c2nc(-c3ccccc3)[nH]c2CCC2CCCCCC2)cc(C(=O)O)c1` [Example 39, 5-{[5-(2-Cycloheptyl-ethyl)-2-phenyl-1H-imidazole-4-carbonyl]-amino}-isophthalic Acid], 2040 nM. To `Cc1ccc(NC(=O)c2nc(-c3c(Cl)cccc3Cl)[nH]c2CCC23CC4CC(CC(C4)C2)C3)cc1C(=O)O` [Example 149, 5-{[5-(2-Adamantan-1-yl-ethyl)-2-(2,6-dichlorophenyl)-1H-imidazole-4-carbonyl]-amino}-2-methyl-benzoic Acid] belongs 5.37 nM; to `Cc1ccccc1-c1nc(C(=O)N2CCC(C(=O)O)CC2)c(CCC23CC4CC(CC(C4)C2)C3)[nH]1` (racemic) [Example 94, (±)-1-[5-(2-Adamantan-1-yl-ethyl)-2-o-tolyl-1H-imidazole-4-carbonyl]-piperidine-4-carboxylic Acid], 5370 nM. Regarding `Cc1ccccc1-c1nc(C(=O)N2CCCC(C(=O)O)C2)c(CCC23CC4CC(CC(C4)C2)C3)[nH]1` (racemic) [Example 93, (±)-1-[5-(2-Adamantan-1-yl-ethyl)-2-o-tolyl-1H-imidazole-4-carbonyl]-piperidine-3-carboxylic Acid], the Ki is 2510 nM.

In the case of `O=C(O)c1cc(NC(=O)c2[nH]c(-c3ccc4ccccc4c3)nc2CC2CCCCCC2)cc(C(=O)O)c1` [Example 20, 5-[(5-Cycloheptylmethyl-2-naphthalen-2-yl-1H-imidazole-4-carbonyl)-amino]-isophthalic Acid], the Ki was 251 nM. Regarding `O=C(Nc1cc(-c2nnn[nH]2)cc(-c2nnn[nH]2)c1)c1cc(-c2ccccc2)[nH]c1CCC12CC3CC(CC(C3)C1)C2` [Example 18, 2-(2-Adamantan-1-yl-ethyl)-5-phenyl-1H-pyrrole-3-carboxylic Acid [3,5-bis-(1H-tetrazol-5-yl)-phenyl]-amide], the Ki is 229 nM. Consider `O=C(O)CNC(=O)c1nc(-c2ccccc2F)[nH]c1CCC12CC3CC(CC(C3)C1)C2` [Example 53, 2-{[5-(2-Adamantan-1-yl-ethyl)-2-(2-fluoro-phenyl)-1H-imidazole-4-carbonyl]-amino}-acetic Acid], for which the Ki is 1660 nM. `Cc1ccccc1-c1nc(C(=O)Nc2cccc(C(=O)NS(=O)(=O)c3ccccc3)c2)c(CCC23CC4CC(CC(C4)C2)C3)[nH]1` [Example 101, 5-(2-Adamantan-1-yl-ethyl)-2-o-tolyl-1H-imidazole-4-carboxylic acid (3-benzenesulfonylaminocarbonyl-phenyl)-amide]: the Ki is 372 nM.

`O=C(O)Cc1cccc(NC(=O)c2nc(-c3ccccc3)[nH]c2CCC23CC4CC(CC(C4)C2)C3)c1` [Example 82, (3-{[5-(2-Adamantan-1-yl-ethyl)-2-phenyl-1H-imidazole-4-carbonyl]-amino}-phenyl)-acetic Acid]: the Ki is 13.2 nM. In the case of `O=C(O)c1cccc(NC(=O)c2[nH]c(-c3ccc4ccccc4c3)nc2CC2CCCCCC2)c1` [Example 21, 3-[(5-Cycloheptylmethyl-2-naphthalen-2-yl-1H-imidazole-4-carbonyl)-amino]-benzoic Acid] it was 813 nM; in that of `O=C(Nc1cccc(CO)c1)c1nc(-c2ccccc2)[nH]c1CCC12CC3CC(CC(C3)C1)C2` [Example 48, 5-(2-Adamantan-1-yl-ethyl)-2-phenyl-1H-imidazole-4-carboxylic Acid (3-hydroxymethyl-phenyl)-amide], 269 nM; in that of `CN(C)c1ccccc1-c1nc(C(=O)Nc2cccc(C(=O)O)c2)c(CCC23CC4CC(CC(C4)C2)C3)[nH]1` [Example 70, 3-{[5-(2-Adamantan-1-yl-ethyl)-2-(2-dimethylamino-phenyl)-1H-imidazole-4-carbonyl]-amino}-benzoic Acid], 245 nM. `Cc1ccccc1-c1cc(C(=O)Nc2cccc(C(=O)O)c2)c(CCC23CC4CC(CC(C4)C2)C3)[nH]1` [Example 123, 3-{[2-(2-Adamantan-1-yl-ethyl)-5-o-tolyl-1H-pyrrole-3-carbonyl]-amino}-benzoic Acid]: the Ki was 204 nM. In the case of `Cc1ccccc1-c1nc(C(=O)Nc2ccc(CC(=O)O)cc2)c(CCC23CC4CC(CC(C4)C2)C3)[nH]1` [Example 99] it was 186 nM.
